According to patent US6852702B2, “9a-N-[N′-(phenylsulfonyl)carbamoyl] derivatives of 9-deoxo-9-dihydro-9a-aza-9a-homoerythromycin A and of 5-O-desosaminyl-9-deoxo-9-dihydro-9a-aza-9a-homoerythronolide A” (Pliva D.D., priority 2002, dated 2005):
≈ marks a conversion by molar mass, not a printed value.

Tested on: Streptococcus pneumoniae ATCC 6305
Assay: MIC by dilution method on microplates (NCCLS M7-A2)
Format: cell-based
Details: in vitro
Protocol: Minimal inhibitory concentrations (MIC, in μg/ml) are determined by dilution method on microplates according to recommendations of National Committee for Clinical Laboratory Standards (NCCLS, M7-A2). So e.g. the minimal inhibitory concentration on Streptococcus pneumoniae ATCC 6305 for the compounds from Examples 1 and 4 is 2 μg/ml and for compounds from Examples 2 and 3 is 1 μg/ml. Thus, they can be used for disinfection of rooms, surgical instruments and people as well as therapeutic agents in the treatment of infective diseases in animals, specially mammals, or humans that are caused by a wide spectrum of gram-positive bacteria, microorganisms or generally pathogenic microorganisms which are sensitive to the compounds of the formula 1. For this purpose the above compounds or their pharmaceutically acceptable salts with acids may be used orally in usual doses from 0.2 mg/kg body weight per day to about 250 mg/kg/day, most frequently from 5-50 mg/kg/day, or parenterally in the form of subcutaneous or intramuscular injections.

| minimal inhibitory concentration (MIC) [µg/mL] | SMILES |
| --- | --- |
| 2 (≈ 2.18 µM) | CCC1OC(=O)C(C)C(OC2CC(C)(OC)C(O)C(C)O2)C(C)C(OC2OC(C)CC(N(C)C)C2O)C(C)(O)CC(C)CN(C(=O)NS(=O)(=O)c2ccccc2)C(C)C(O)C1(C)O (stereo not shown) [Example 4, 9-Deoxo-9-dihydro-9a-N-[N′-(benzenesulfonyl)carbamoyl]-9a-aza-9a-homoerythromycin A] |
| 1 (≈ 1.07 µM) | CCC1OC(=O)C(C)C(OC2CC(C)(OC)C(O)C(C)O2)C(C)C(OC2OC(C)CC(N(C)C)C2O)C(C)(O)CC(C)CN(C(=O)NS(=O)(=O)c2ccccc2C)C(C)C(O)C1(C)O (stereo not shown) [Example 3, 9-Deoxo-9-dihydro-9a-N-[N′-(o-toluenesulfonyl)carbamoyl]-9a-aza-9a-homoerythromycin A] |
| 1 (≈ 1.07 µM) | CCC1OC(=O)C(C)C(OC2CC(C)(OC)C(O)C(C)O2)C(C)C(OC2OC(C)CC(N(C)C)C2O)C(C)(O)CC(C)CN(C(=O)NS(=O)(=O)c2ccc(C)cc2)C(C)C(O)C1(C)O (stereo not shown) [Example 2, 9-Deoxo-9-dihydro-9a-N-[N′-(p-toluenesulfonyl)carbamoyl]-9a-aza-9a-homoerythromycin A] |

| SMILES | minimal inhibitory concentration (MIC) [µg/mL] |
| --- | --- |
| CCC1OC(=O)C(C)C(OC2CC(C)(OC)C(O)C(C)O2)C(C)C(OC2OC(C)CC(N(C)C)C2O)C(C)(O)CC(C)CN(C(=O)NS(=O)(=O)c2ccc(Cl)cc2)C(C)C(O)C1(C)O (stereo not shown) [Example 1, 9-Deoxo-9-dihydro-9a-N-[N′-(4-chlorobenzenesufonyl)carbamoyl]-9a-aza-9a-homoerythromycin A] | 2 (≈ 2.1 µM) |
